Legend:
“S. pettenkoferi” = test system: “S. pettenkoferi”; set-up: key: “R”, resistant; “S”, susceptible; “v”, variable; conditions: Trulzsch et al. (2002); cited from earlier work
S. epidermidis = test system: S. epidermidis; set-up: key: “R”, resistant; “S”, susceptible; “v”, variable; conditions: cited from earlier work
Unknowns (n = 12) = experiment: Novobiocin and polymyxin B resistance, summary of isolates; assay type: cell-based, Staphylococcus pseudolugdunensis; conditions: for Summary: resistance percentage: Unknowns (n = 12)
Excerpt: (§1) Both clinical isolates and reference isolates were first identified by the conventional method based on colony size and pigment; anaerobic and aerobic growth; the presence of clumping factor, Staphaurex latex agglutination (Murex Diagnostics Inc., Norcross, Ga.), hemolysins, oxidase, ODC, urease, and PYR (De Paulis, A. N., et al (2003) J. Clin. Microbiol. 41: 1219-24, 16, 25, 33). Species identification further confirmed by using an API STAPH (bioMerieux Vitek, Inc., Hazelwood, Mo.) according to the manufacturer's instructions (Brun, Y., et al (1990) J. Clin. Microbiol. 8: 503-8; Chapin, K., and M. Musgnug (2003) J. Clin. Microbiol. 41: 4324-7; Gemmell, C. G., and J. E. Dawson (1982) J. Clin. Microbiol. 16:874-7; Heikens, E., et al (2005) J. Clin. Microbiol. 43: 2286-90; Layer, F., B. et al (2006) J. Clin. Microbiol. 44: 2824-30.). PYR and ODC were performed with S. aureus (ATCC#25923) and S. lugdunensis (ATCC#700328) included as negative and positive controls, respectively. Biochemical tests included acid production from D-glucose, D-trehalose, D-mannitol, D-mannose, xylose, maltose, lactose, sucrose, N-acetylglucosamine, raffinose, D-fructose, D-melibiose, xylitol, and α-methyl-glucosamine; nitrate reduction; and alkaline phosphatase, arginine dihydrolase, urease, and acetoin production. […] Biochemical reactions, including catalase, coagulase, D-glucose, D-mannitol, D-fructose, galactose, lactose, maltose, sucrose, D-trehalose, xylose, nitrate reduction, arginine dihydrolase, urease, and novobiocin and polymyxin B resistance, were further confirmed at the Tennessee Department of Health Laboratory Services in Nashville, Tenn., using phenotypic methods recommended by the United States Centers for Disease Control (CDC), Atlanta, Ga. (Kloose, W. E. and T. L. Bannerman (1995) Staphylococcus and Micrococcus, p. 282-298, in P. R. Murray et al. (eds.) Manual of Clinical Microbiology, 6th ed., American Society for Microbiology Press, Washington, D.C.; Kloose, W. E. and K. H. Schleifer (1975) J. Clin. Microbiol. 1: 82-88).

S. auricularis = test system: S. auricularis; set-up: key: “R”, resistant; “S”, susceptible; “v”, variable; conditions: cited from earlier work
S. lugdunensis = test system: S. lugdunensis; set-up: key: “R”, resistant; “S”, susceptible; “v”, variable; conditions: cited from earlier work
isolate B292 = experiment: Novobiocin and polymyxin B resistance, phenotypic methods; assay type: cell-based, Staphylococcus pseudolugdunensis; set-up: key: “R”, resistant; “S”, susceptible; “v”, variable
Excerpt: as §1

isolate B334 = experiment: as above; assay type: cell-based, Staphylococcus pseudolugdunensis; set-up: key: “R”, resistant; “S”, susceptible; “v”, variable
Excerpt: as §1

isolate B287 = experiment: as above; assay type: cell-based, Staphylococcus pseudolugdunensis; set-up: key: “R”, resistant; “S”, susceptible; “v”, variable
Excerpt: as §1

isolate B277 = experiment: as above; assay type: cell-based, Staphylococcus pseudolugdunensis; set-up: key: “R”, resistant; “S”, susceptible; “v”, variable
Excerpt: as §1

isolate B837 = experiment: as above; assay type: cell-based, Staphylococcus pseudolugdunensis; set-up: key: “R”, resistant; “S”, susceptible; “v”, variable
Excerpt: as §1

isolate B739 = experiment: as above; assay type: cell-based, Staphylococcus pseudolugdunensis; set-up: key: “R”, resistant; “S”, susceptible; “v”, variable
Excerpt: as §1

isolate B230 = experiment: as above; assay type: cell-based, Staphylococcus pseudolugdunensis; set-up: key: “R”, resistant; “S”, susceptible; “v”, variable
Excerpt: as §1

isolate B060 = experiment: as above; assay type: cell-based, Staphylococcus pseudolugdunensis; set-up: key: “R”, resistant; “S”, susceptible; “v”, variable
Excerpt: as §1

isolate B006 = experiment: as above; assay type: cell-based, Staphylococcus pseudolugdunensis; set-up: key: “R”, resistant; “S”, susceptible; “v”, variable
Excerpt: as §1

isolate B354 = experiment: as above; assay type: cell-based, Staphylococcus pseudolugdunensis; set-up: key: “R”, resistant; “S”, susceptible; “v”, variable
Excerpt: as §1

isolate B715 = experiment: as above; assay type: cell-based, Staphylococcus pseudolugdunensis; set-up: key: “R”, resistant; “S”, susceptible; “v”, variable
Excerpt: as §1

For `CO[C@@H]1[C@@H](OC(N)=O)[C@@H](O)[C@H](Oc2ccc3c(O)c(NC(=O)c4ccc(O)c(CC=C(C)C)c4)c(=O)oc3c2C)OC1(C)C` [Novobiocin], the Resistance/Susceptibility (“S. pettenkoferi”) is given as “S”, the Resistance/Susceptibility (S. epidermidis) is given as “S” and the “Summary: resistance percentage” value (Unknowns (n = 12)) is given as 42 percentage. For the same compound, the Resistance/Susceptibility (S. auricularis) was “S”, the Resistance/Susceptibility (S. lugdunensis) was “S” and the Resistance/Susceptibility (isolate B292) was “R”. The Resistance/Susceptibility (isolate B334) was “R”, the Resistance/Susceptibility (isolate B287) was “R” and the Resistance/Susceptibility (isolate B277) was “R”. The Resistance/Susceptibility (isolate B837) was “R”.
In the case of Polymyxin B, the Resistance/Susceptibility (S. epidermidis) is given as “R”, the “Relative resistance of S. pseudolugdunensis to polymyxin B and novobiocin” value (Unknowns (n = 12); Staphylococcus pseudolugdunensis bacteria) is given as “more resistant to polymyxin B than to novobiocin” and the “Summary: resistance percentage” value (Unknowns (n = 12)) is given as 8 percentage. For the same compound, the Resistance/Susceptibility (S. auricularis) was “S”, the Resistance/Susceptibility (S. lugdunensis) was “v” and the Resistance/Susceptibility (isolate B292) was “S”. The Resistance/Susceptibility (isolate B334) was “S”, the Resistance/Susceptibility (isolate B739) was “S” and the Resistance/Susceptibility (isolate B287) was “S”. For the same compound, the Resistance/Susceptibility (isolate B230) was “S”, the Resistance/Susceptibility (isolate B060) was “S” and the Resistance/Susceptibility (isolate B006) was “S”. For the same compound, the Resistance/Susceptibility (isolate B837) was “R”, the Resistance/Susceptibility (isolate B354) was “S” and the Resistance/Susceptibility (isolate B715) was “S”.
